# Measurements taken from PMC8779140 (Pharmaceutics, 2022).
# Entries after “also recorded” stand apart in the source; their conditions may differ. Like-named read-outs stand apart in the source and are kept apart here. *1 amine or outer side, *2 acyl side, *3 side chain or, on linkers, in order; H or OH if unused. Where a SMILES comes first, the peptide text is derived from it. Bridges are numbered along the chain shown (N, C = ends). Roman numbers before positions name the chains, in order. [ ]: non-standard residue; d: D form. Actinocin(9to1) = Cc1c2oc3c(C)ccc(C(=O)[*:1])c3nc-2c(C(=O)[*:2])c(N)c1=O; NMeV = CN[C@H](C(=O)O)C(C)C; Sar = CNCC(=O)O
# Key:
# human TMPRSS2 = target: T1, human TMPRSS2 (Homo sapiens, UniProt O15393); assay: Inhibition assay of human TMPRSS2 (fluorogenic peptide); assay type: biochemical
# T1 construct: the purified MBP-tagged TMPRSS2 (residues 256-492) activity; made in house; host or cells: E. coli BL21 (DE3)
# T1 sequence (O15393 256-492): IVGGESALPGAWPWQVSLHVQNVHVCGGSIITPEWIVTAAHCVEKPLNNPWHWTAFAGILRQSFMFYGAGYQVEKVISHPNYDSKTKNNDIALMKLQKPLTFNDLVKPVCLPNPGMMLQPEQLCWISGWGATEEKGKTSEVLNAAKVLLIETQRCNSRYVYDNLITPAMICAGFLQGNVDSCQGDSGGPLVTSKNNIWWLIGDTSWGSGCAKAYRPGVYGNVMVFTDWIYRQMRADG
# Procedure: Cloning of TMPRSS2 was performed as previously reported. The synthetic gene encoding the catalytic domain of human TMPRSS2 (residues 256–492) was cloned into the pMAL-c5X vector (New England Biolabs). This plasmid was transformed into E. coli BL21 (DE3) for protein overexpression. Overnight culture of a single transformant (5 mL) was added to 500 mL of fresh LB medium containing […] ampicillin. The cells were grown to an OD600 of 0.6 and added with 1 mM isopropyl-β-thiogalactopyranoside for further 20 h incubation at 16 °C for recombinant protein production. The cells were harvested by centrifugation at 7000× g for 15 min.
# Purification of the maltose-binding protein (MBP)-tagged TMPRSS2 was conducted at 4 °C. The cell paste obtained from the cell culture (1 L) was suspended in a lysis buffer (40 mL) containing 25 mM Tris-HCl (pH 7.5) and 150 mM NaCl. To disrupt the cells, a French press was used. The cell-free extract was loaded onto a 10 mL amylose resin column (New England Biolabs, Ipswich, MA, USA) equilibrated with the lysis buffer. The column was washed with 10 column volumes of lysis buffer, and then the MBP-tagged TMPRSS2 bound to the amylose resin was eluted with the elution buffer (25 mM Tris, pH 7.5, 150 mM NaCl, and 10 mM maltose).
# For assaying the inhibition of the purified MBP-tagged TMPRSS2 (residues 256-492) activity, a fluorogenic peptide substrate, Boc-Gln-Ala-Arg-AMC, was used with excitation at 355 nm and emission at 460 nm. The enzyme (0.22 μM) was preincubated in the presence or absence of various concentrations of inhibitors in 20 mM HEPES and pH 7.5 assay buffer for 10 min in black 96-well immuno plates (Thermo Scientific). Next, the fluorescent substrate (10 μM) was added and incubated for 60 min at room temperature. The reactions were monitored by using a fluorescence plate reader (Fluoroskan Ascent, Thermo Labsystems, Franklin, MA, USA). The initial velocities of the inhibited reactions were plotted against the different inhibitor concentrations to yield the IC50 value by fitting with the equation A(I) = A(0) × {1 − [I/(I + IC50)]}. In this equation, A(I) is the enzyme activity with inhibitor concentration I, and A(0) is the enzyme activity without an inhibitor. For each data point, the measurements were repeated thrice to yield the mean and standard deviation.
# SARS-CoV-2 PL^pro = target: T2, SARS-CoV-2 PL^pro (Severe acute respiratory syndrome coronavirus 2, UniProt P0DTD1); assay: biochemical
# T2 construct: The synthetic gene of SARS-CoV-2 PL^pro was cloned into the pET16b vector; made in house; host or cells: E. coli BL21(DE3)
# SARS-CoV-2 3CL^pro = SARS-CoV-2 3CL^pro (Severe acute respiratory syndrome coronavirus 2, UniProt P0DTD1); assay: biochemical
# SARS-CoV-2 = assay: Plaque reduction assay in Vero E6 cells; assay type: cell-based; conditions: 120 h
# Vero E6 cells [1] = assay: Cytotoxicity seen in the plaque reduction assay; conditions: Figure 7b, seen at 0.2 μM
# [2] = target: spike RBD–ACE2 interaction (wild-type) (Severe acute respiratory syndrome coronavirus 2, UniProt P0DTC2); assay type: cell-based, SARS-CoV-2; conditions: RBD attachment assay
# [3] = cited from earlier work
# Vero E6 cells [4] = tested on: Vero E6 cells
# [5] = 75 nM PL^pro, 10 μM z-Arg-Leu-Arg-Gly-Gly-AMC, pH 7.5, read-out: IC50
# [6] = 0.22 μM MBP-tagged TMPRSS2 (residues 256-492), 10 μM Boc-Gln-Ala-Arg-AMC, read-out: IC50
compound,measurement,setting,value
CN(C)C/C=C/C(=O)Nc1cc2c(Nc3ccc(F)c(Cl)c3)ncnc2cc1O[C@H]1CCOC1 [Afatinib],IC50,human TMPRSS2,28.4 ± 1.5 µM
same,IC50,SARS-CoV-2 PL^pro; [5],45.6 ± 4.2 µM
"Cc1c2oc3c(C)ccc(C(=O)N[C@@H]4C(=O)N[C@H](C(C)C)C(=O)N5CCC[C@H]5C(=O)N(C)CC(=O)N(C)[C@@H](C(C)C)C(=O)O[C@@H]4C)c3nc-2c(C(=O)N[C@@H]2C(=O)N[C@H](C(C)C)C(=O)N3CCC[C@H]3C(=O)N(C)CC(=O)N(C)[C@@H](C(C)C)C(=O)O[C@@H]2C)c(N)c1=O [Dactinomycin] (I: T[dV]P[Sar][NMeV] / II: T[dV]P[Sar][NMeV]; ester I:1-I:C, II:1-II:C; linker I:N-II:N via Actinocin(9to1))",IC50,SARS-CoV-2 PL^pro; [5],14.7 ± 2.6 µM
same,IC50,"SARS-CoV-2 3CL^pro; 35 nM 3CL^pro, 6 μM fluorogenic substrate, pH 7.0, read-out: IC50",37.6 ± 2.8 µM
COc1cccc2c1C(=O)c1c(O)c3c(c(O)c1C2=O)C[C@@](O)(C(=O)CO)C[C@@H]3O[C@H]1C[C@H](N)[C@H](O)[C@H](C)O1 [Doxorubicin],IC50,human TMPRSS2; [6],8.2 ± 1.6 µM
same,antiviral activity in plaque reduction assay,SARS-CoV-2; 10 μM,did not effectively inhibit the replication and infection of the virus
same,IC50,SARS-CoV-2 PL^pro,4.6 ± 0.8 µM
CCN(CC)CCCC(C)Nc1c2ccc(Cl)cc2nc2ccc(OC)cc12 (centres unmarked) [Mepacrine],IC50,human TMPRSS2; [6],29.9 ± 3.7 µM
same,IC50,SARS-CoV-2 PL^pro,4.4 ± 0.9 µM
CCOc1cc2ncc(C#N)c(Nc3ccc(OCc4ccccn4)c(Cl)c3)c2cc1NC(=O)/C=C/CN(C)C [Neratinib],IC50,human TMPRSS2; [6],25.9 ± 3.2 µM
same,IC50,SARS-CoV-2 PL^pro; [5],11.6 ± 2.9 µM
O=C(Nc1ccc([N+](=O)[O-])cc1Cl)c1cc(Cl)ccc1O [Niclosamide],antiviral activity in plaque reduction assay,SARS-CoV-2; 0.2 μM,demonstrated antiviral property
same,cytotoxicity,Vero E6 cells [1],"cells appeared broken into tiny particles, revealing the cytotoxicity; also recorded: high cytotoxicity"
same,IC50,SARS-CoV-2 PL^pro,16.6 ± 1.8 µM
same,IC50,SARS-CoV-2 3CL^pro,18.7 ± 0.9 µM
CO[C@H]1C[C@@H]2CC[C@@H](C)[C@@](O)(O2)C(=O)C(=O)N2CCCC[C@H]2C(=O)O[C@H]([C@H](C)C[C@@H]2CC[C@@H](O)[C@H](OC)C2)CC(=O)[C@H](C)/C=C(\C)[C@@H](O)[C@@H](OC)C(=O)[C@H](C)C[C@H](C)/C=C/C=C/C=C/1C [Rapamycin],inhibition of TMPRSS2 (in words),human TMPRSS2; IC50 threshold 50 μM,did not inhibit
same,antiviral activity in plaque reduction assay,SARS-CoV-2; 20 μM,did not exert a significant effect on the inhibition of viral infection
same,IC50,SARS-CoV-2 PL^pro; [5],31 ± 2.4 µM
same,inhibition of RBD–ACE2 interplay (in words),[2],could not efficiently inhibit the interplay between the RBD and ACE2
CC/C(=C(\c1ccccc1)c1ccc(OCCN(C)C)cc1)c1ccccc1 [Tamoxifen],IC50,human TMPRSS2,21.4 ± 1.6 µM
same,antiviral activity in plaque reduction assay,SARS-CoV-2; 10 μM,robustly protected cells from the viral infection
same,half-life,[3],120 to 170 h
same,cytotoxicity,Vero E6 cells [4],without apparent cytotoxicity
